In patent US6423689B1, “Peptidyl calcium channel blockers” (Warner-Lambert Company, priority 1997, dated 2002):

Target: T1, N-type Ca2+ channels in IMR-32 cells (Homo sapiens, UniProt Q00975)
T1 construct: host or cells: IMR-32 cells, differentiated with dibutyryl cAMP and bromodeoxyuridine
Assay: Inhibition of N-type calcium flux in IMR-32 cells (Indo-1 fluorescence, nitrendipine present)
Assay type: cell-based
Details: for inhibition at 1 µM / inhibition at 10 µM: IMR-32; for IC50: IMR-32 cells, 5 μM nitrendipine, K+ depolarization
Procedure, shortened: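 Differentiated IMR-32 cells (7–13 days) were loaded with 5 μM Indo-1 AM, preincubated with compound for 10 min at 30° C, and depolarized with KCl/CaCl2 stimulation solution, with 5 μM nitrendipine blocking L-channels. Peak-minus-basal 400/490 nm emission ratio was plotted against drug concentration, and IC50 came from four-parameter logistic fits.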

T1 sequence (Q00975 whole entry): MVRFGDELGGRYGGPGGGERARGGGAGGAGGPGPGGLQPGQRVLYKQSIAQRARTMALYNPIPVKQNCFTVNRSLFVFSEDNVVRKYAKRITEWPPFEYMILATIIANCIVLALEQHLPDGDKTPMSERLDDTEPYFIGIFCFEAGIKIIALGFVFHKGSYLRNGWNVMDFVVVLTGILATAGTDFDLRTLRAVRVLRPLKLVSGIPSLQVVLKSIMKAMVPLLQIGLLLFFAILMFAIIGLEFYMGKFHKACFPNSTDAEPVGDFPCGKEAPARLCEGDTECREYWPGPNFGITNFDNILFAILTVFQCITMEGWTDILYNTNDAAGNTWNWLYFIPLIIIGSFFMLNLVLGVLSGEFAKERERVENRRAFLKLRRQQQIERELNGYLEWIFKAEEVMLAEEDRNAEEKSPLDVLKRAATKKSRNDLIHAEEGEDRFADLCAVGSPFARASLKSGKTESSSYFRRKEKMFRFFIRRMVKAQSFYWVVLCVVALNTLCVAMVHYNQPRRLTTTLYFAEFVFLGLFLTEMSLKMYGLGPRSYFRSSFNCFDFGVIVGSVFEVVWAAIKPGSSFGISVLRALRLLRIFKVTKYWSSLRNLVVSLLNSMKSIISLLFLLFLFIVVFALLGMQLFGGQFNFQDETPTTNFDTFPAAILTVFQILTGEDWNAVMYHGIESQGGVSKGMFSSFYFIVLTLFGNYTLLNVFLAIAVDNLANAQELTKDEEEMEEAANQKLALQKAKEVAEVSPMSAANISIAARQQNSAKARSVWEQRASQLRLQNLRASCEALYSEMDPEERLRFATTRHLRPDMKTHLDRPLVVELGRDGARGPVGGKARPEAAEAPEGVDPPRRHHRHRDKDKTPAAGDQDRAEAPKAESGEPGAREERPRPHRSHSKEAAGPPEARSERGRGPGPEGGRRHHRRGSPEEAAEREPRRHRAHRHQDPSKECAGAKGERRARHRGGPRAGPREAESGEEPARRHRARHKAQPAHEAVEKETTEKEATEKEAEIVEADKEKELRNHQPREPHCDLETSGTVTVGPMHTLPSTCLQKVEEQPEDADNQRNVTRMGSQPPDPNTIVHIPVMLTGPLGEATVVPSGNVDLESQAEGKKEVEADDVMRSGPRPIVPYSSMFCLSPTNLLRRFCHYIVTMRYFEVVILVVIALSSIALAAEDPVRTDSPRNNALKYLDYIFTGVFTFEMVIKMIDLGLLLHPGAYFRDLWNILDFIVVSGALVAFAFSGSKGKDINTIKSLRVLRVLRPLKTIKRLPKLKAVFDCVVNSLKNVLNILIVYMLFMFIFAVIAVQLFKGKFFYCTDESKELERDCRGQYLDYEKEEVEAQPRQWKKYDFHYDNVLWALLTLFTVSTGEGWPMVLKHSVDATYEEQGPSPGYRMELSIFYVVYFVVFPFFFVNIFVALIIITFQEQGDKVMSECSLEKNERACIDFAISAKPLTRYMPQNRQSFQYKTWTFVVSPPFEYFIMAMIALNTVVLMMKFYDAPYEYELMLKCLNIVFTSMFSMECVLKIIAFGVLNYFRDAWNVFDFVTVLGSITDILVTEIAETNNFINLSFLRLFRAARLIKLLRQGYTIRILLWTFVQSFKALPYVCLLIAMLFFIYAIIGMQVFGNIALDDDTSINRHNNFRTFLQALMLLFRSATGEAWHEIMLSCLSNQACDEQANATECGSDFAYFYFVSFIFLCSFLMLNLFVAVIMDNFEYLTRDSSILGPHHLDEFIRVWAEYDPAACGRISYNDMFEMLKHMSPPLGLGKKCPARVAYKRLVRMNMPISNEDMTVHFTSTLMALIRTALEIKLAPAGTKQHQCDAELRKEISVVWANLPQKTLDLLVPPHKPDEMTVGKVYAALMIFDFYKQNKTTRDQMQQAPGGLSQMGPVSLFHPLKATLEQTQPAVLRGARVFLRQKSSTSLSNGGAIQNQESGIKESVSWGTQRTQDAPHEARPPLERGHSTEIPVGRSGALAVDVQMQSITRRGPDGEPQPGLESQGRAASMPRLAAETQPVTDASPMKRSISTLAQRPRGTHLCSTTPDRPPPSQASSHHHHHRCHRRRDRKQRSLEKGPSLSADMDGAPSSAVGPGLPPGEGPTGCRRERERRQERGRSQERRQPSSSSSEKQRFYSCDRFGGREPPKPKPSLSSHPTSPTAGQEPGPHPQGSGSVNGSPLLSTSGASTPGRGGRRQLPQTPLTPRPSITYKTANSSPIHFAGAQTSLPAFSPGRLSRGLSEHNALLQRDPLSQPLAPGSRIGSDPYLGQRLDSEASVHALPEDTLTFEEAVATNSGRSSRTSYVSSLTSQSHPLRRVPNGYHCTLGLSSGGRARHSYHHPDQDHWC
T1 sequence (P54289 25-956 partner limits assumed): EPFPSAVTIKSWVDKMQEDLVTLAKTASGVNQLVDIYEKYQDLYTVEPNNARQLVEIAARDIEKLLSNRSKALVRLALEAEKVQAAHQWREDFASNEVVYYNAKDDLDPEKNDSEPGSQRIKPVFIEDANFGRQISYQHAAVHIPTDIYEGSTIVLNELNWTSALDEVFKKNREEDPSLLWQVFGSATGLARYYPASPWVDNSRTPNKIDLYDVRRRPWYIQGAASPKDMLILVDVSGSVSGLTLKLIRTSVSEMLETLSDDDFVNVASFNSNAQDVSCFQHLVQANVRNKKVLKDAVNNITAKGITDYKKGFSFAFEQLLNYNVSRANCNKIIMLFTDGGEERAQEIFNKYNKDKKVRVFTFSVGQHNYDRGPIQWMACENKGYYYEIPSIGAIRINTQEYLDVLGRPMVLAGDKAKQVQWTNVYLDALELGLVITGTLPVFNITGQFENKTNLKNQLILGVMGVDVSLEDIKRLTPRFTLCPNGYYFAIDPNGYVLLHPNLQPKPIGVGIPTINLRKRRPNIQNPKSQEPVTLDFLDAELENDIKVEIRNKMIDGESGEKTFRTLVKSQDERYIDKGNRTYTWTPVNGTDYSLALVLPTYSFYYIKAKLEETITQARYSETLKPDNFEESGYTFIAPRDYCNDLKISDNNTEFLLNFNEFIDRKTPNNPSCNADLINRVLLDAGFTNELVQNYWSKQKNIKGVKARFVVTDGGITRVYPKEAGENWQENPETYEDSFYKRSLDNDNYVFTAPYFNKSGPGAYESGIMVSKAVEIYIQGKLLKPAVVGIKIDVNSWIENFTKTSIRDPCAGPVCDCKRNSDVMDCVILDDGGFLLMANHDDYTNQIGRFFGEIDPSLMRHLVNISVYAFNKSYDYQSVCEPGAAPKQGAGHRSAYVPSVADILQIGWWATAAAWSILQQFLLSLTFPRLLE
T1 sequence (P54289 957-1103 partner limits assumed): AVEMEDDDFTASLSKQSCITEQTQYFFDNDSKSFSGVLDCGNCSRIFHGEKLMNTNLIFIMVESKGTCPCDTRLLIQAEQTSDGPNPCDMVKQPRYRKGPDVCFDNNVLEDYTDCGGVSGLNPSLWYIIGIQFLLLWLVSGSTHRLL
T1 sequence (P54284 whole entry partner): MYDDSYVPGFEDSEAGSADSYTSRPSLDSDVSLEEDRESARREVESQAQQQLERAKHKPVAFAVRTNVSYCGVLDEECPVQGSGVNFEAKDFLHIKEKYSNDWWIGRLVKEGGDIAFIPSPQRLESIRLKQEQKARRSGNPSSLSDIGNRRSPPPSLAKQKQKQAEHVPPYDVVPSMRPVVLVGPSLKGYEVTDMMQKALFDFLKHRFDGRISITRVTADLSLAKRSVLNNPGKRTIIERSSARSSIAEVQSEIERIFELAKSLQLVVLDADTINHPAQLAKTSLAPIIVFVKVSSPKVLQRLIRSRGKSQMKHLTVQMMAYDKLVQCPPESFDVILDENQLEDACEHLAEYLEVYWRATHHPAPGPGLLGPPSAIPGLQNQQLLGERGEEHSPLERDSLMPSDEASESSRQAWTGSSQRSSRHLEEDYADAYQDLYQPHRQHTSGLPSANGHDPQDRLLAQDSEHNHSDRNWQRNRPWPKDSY

inhibition at 1 µM [%]	inhibition at 10 µM [%]	IC50 [µM]	Inhibition of Calcium Flux in IMR-32 Cells % Inhibition at 1 μM (1 μM) [%]	Inhibition of Calcium Flux in IMR-32 Cells % Inhibition at 10 μM (10 μM) [%]	Compound
30	33	2.4			CC(C)C[C@H](NC(=O)N1CCCCCC1)C(=O)N[C@@H](Cc1ccc(OCc2ccccc2)cc1)C(=O)Nc1ccc(Oc2ccccc2)cc1 [Example 213, [S-(R*,R*)]-Azepane-1-carboxylic acid {1-[2-(4-benzyloxy-phenyl)-1-(4-phenoxy-phenylcarbamoyl)-ethylcarbamoyl]-3-methyl-butyl}-amide]
42	51	1.4			CC(C)C[C@H](NC(=O)N1CCCCCC1)C(=O)N[C@@H](Cc1ccc(OCc2ccccc2)cc1)C(=O)Nc1cccc(C(F)(F)F)c1 [Example 214, [S-(R*,R*)]-Azepane-1-carboxylic acid {1-[2-(4-benzyloxy-phenyl)-1-(3-trifluoromethyl-phenylcarbamoyl)-ethylcarbamoyl]-3-methyl-butyl}-amide]
35	75	5			CC(C)C[C@H](NC(=O)N1CCCCCC1)C(=O)N[C@@H](Cc1ccc(OCc2ccccc2)cc1)C(=O)NCc1ccc(CN)cc1 [Example 217, [S-(R*,R*)]-Azepane-1-carboxylic acid {1-[1-(4-aminomethyl-benzylcarbamoyl)-2-(4-benzyloxy-phenyl)-ethylcarbamoyl]-3-methyl-butyl}-amide]
62	93				CC(C)CC(NC(=O)N1CCCCCC1)C(=O)NC(Cc1ccc(OCc2ccccc2)cc1)C(=O)N1CCCC1CNc1ccccc1 (centres unmarked) [Example 218, Azepane-1-carboxylic acid {1-[1-(4-benzyloxy-benzyl)-2-oxo-2-(2-phenylaminomethyl-pyrrolidin-1-yl)-ethylcarbamoyl]-3-methyl-butyl}-amide]
6	23				CC(C)CC(NC(=O)N1CCCCCC1)C(=O)NC(Cc1ccc(OCc2ccccc2)cc1)C(=O)NCC(O)CN (centres unmarked) [Example 219, Azepane-1-carboxylic acid {1-[1-(3-amino-2-hydroxy-propylcarbamoyl)-2-(4-benzyloxy-phenyl)-ethylcarbamoyl]-3-methyl-butyl}-amide]
			19	86	CC(C)CC(NC(=O)N1CCCCCC1)C(=O)NC(Cc1ccc(OCc2ccccc2)cc1)C(=O)NC(CO)C(O)c1ccccc1 (stereo not drawn) [Example 227, [S-(R*,R*)]-Azepane-1-carboxylic acid {1-[2-(4-benzyloxy-phenyl)-1-(2-hydroxy-1-hydroxymethyl-2-phenyl-ethylcarbamoyl)-ethylcarbamoyl]-3-methyl-butyl}-amide]

Continued, compound first:

Compound	inhibition at 1 µM [%]	inhibition at 10 µM [%]	IC50 [µM]	Inhibition of Calcium Flux in IMR-32 Cells % Inhibition at 1 μM (1 μM) [%]	Inhibition of Calcium Flux in IMR-32 Cells % Inhibition at 10 μM (10 μM) [%]
CC(C)C[C@H](NC(=O)N1CCCCCC1)C(=O)N[C@@H](Cc1ccc(OCc2ccccc2)cc1)C(=O)N1CCN(CCO)CC1 [Example 202, [S-(R*,R*)]-Azepane-1-carboxylic acid (1-{1-(4-benzyloxy-benzyl)-2-[4-(2-hydroxy-ethyl)-piperazin-1-yl]-2-oxo-ethylcarbamoyl}-3-methyl-butyl)-amide]	25	79	2.8		
CC(C)C[C@H](NC(=O)N1CCCCCC1)C(=O)N[C@@H](Cc1ccc(OCc2ccccc2)cc1)C(=O)NC1CC(C)(C)NC(C)(C)C1 [Example 203, [S-(R*,R*)]-Azepane-1-carboxylic acid {1-[2-(4-benzyloxy-phenyl)-1-(2,2,6,6-tetramethyl-piperidin-4-ylcarbamoyl)-ethylcarbamoyl]-3-methyl-butyl}-amide]	15	70	4.7		
CC(=O)N1CCN(C(=O)[C@H](Cc2ccc(OCc3ccccc3)cc2)NC(=O)[C@H](CC(C)C)NC(=O)N2CCCCCC2)CC1 [Example 204, [S-(R*,R*)]-Azepane-1-carboxylic acid {1-[2-(4-acetyl-piperazin-1-yl)-1-(4-benzyloxy-benzyl)-2-oxo-ethylcarbamoyl]-3-methyl-butyl}-amide]	13	66	5.5		
CC(C)C[C@H](NC(=O)N1CCCCCC1)C(=O)N[C@@H](Cc1ccc(OCc2ccccc2)cc1)C(=O)NCC1CCCCC1 [Example 205, [S-(R*,R*)]-Azepane-1-carboxylic acid {1-[2-(4-benzyloxy-phenyl)-1-(cyclohexylmethyl-carbamoyl)-ethylcarbamoyl]-3-methyl-butyl}-amide]	36	72	2.4		
CC(C)C[C@H](NC(=O)N1CCCCCC1)C(=O)N[C@@H](Cc1ccc(OCc2ccccc2)cc1)C(=O)NCC1CC1 [Example 206, [S-(R*,R*)]-Azepane-1-carboxylic acid {1-[2-(4-benzyloxy-phenyl)-1-(cyclopropylmethyl-carbamoyl)-ethylcarbamoyl]-3-methyl-butyl}-amide]	37	87	1.7		
CC(C)C[C@H](NC(=O)N1CCCCCC1)C(=O)N[C@@H](Cc1ccc(OCc2ccccc2)cc1)C(=O)Nc1nccs1 [Example 207, [S-(R*,R*)]-Azepane-1-carboxylic acid {1-[2-(4-benzyloxy-phenyl)-1-(thiazol-2-ylcarbamoyl)-ethylcarbamoyl]-3-methyl-butyl}-amide]	21	59	6.2		
CC(C)C[C@H](NC(=O)N1CCCCCC1)C(=O)N[C@@H](Cc1ccc(OCc2ccccc2)cc1)C(=O)NC1CCCCCC1 [Example 208, [S-(R*,R*)]-Azepane-1-carboxylic acid {1-[2-(4-benzyloxy-phenyl)-1-cycloheptylcarbamoyl-ethylcarbamoyl]-3-methyl-butyl}-amide]	38	81	1.8		
CC(C)C[C@H](NC(=O)N1CCCCCC1)C(=O)N[C@@H](Cc1ccc(OCc2ccccc2)cc1)C(=O)NC1CC1 [Example 209, [S-(R*,R*)]-Azepane-1-carboxylic acid {1-[2-(4-benzyloxy-phenyl)-1-cyclopropylcarbamoyl-ethylcarbamoyl]-3-methyl-butyl}-amide]	27	82	2.5		
COc1ccc(NC(=O)[C@H](Cc2ccc(OCc3ccccc3)cc2)NC(=O)[C@H](CC(C)C)NC(=O)N2CCCCCC2)cc1 [Example 210, [S-(R*,R*)]-Azepane-1-carboxylic acid {1-[2-(4-benzyloxy-phenyl)-1-(4-methoxy-phenylcarbamoyl)-ethylcarbamoyl]-3-methyl-butyl}-amide]	39		1.5		
CC(C)C[C@H](NC(=O)N1CCCCCC1)C(=O)N[C@@H](Cc1ccc(OCc2ccccc2)cc1)C(=O)Nc1ccc(CCO)cc1 [Example 211, [S-(R*,R*)]-Azepane-1-carboxylic acid (1-{2-(4-benzyloxy-phenyl)-1-[4-(2-hydroxy-ethyl)-phenylcarbamoyl]-ethylcarbamoyl}-3-methyl-butyl)-amide]	49	81	1.1		
CC(=O)c1ccc(NC(=O)[C@H](Cc2ccc(OCc3ccccc3)cc2)NC(=O)[C@H](CC(C)C)NC(=O)N2CCCCCC2)cc1 [Example 212, [S-(R*,R*)]-Azepane-1-carboxylic acid {1-[1-(4-acetyl-phenylcarbamoyl)-2-(4-benzyloxy-phenyl)-ethylcarbamoyl]-3-methyl-butyl}-amide]	34	66	1.9		
